Results as given in PubChem BioAssay AID2060338 (Molecular Pharmacology Branch, DTP, NCI, 2025).
Where “and” joins values, the source holds several entries; their conditions need not be identical. Equal entries are not always repeated.

System: 556581-035-R-J1-PDC spheroids with HUVEC/MSC, viability
Test: Anticancer human tumor 556581-035-R-J1-PDC patient-derived ovarian carcinoma cell line growth inhibition [IpAb]
Details: for viability, T/C: stronger effect = lower value
Procedure, shortened: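 Combinations with ipatasertib or abemaciclib were tested on tumour spheroids holding HUVEC (25%) and MSC (15%) alongside 60% malignant cells. Top concentration was at or near clinical Cmax (10 microM if undefined), descending in half-log steps.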

[1] = curve of first compound, second compound 0.01 µM
[2] = curve of first compound, second compound 0.0316 µM
[3] = curve of first compound, second compound 0.1 µM
[4] = curve of first compound, second compound 0.316 µM
[5] = curve of first compound, second compound 1 µM
[6] = second compound 0.01 µM, first compound 0.0316 µM
[7] = second compound 0.01 µM, first compound 0.1 µM
[8] = second compound 0.01 µM, first compound 0.316 µM
[9] = second compound 0.01 µM, first compound 1 µM
[10] = second compound 0.01 µM, first compound 3.16 µM
[11] = second compound 0.01 µM, first compound 10 µM
[12] = second compound 0.0316 µM, first compound 0.0316 µM
[13] = second compound 0.0316 µM, first compound 0.1 µM
[14] = second compound 0.0316 µM, first compound 0.316 µM
[15] = second compound 0.0316 µM, first compound 1 µM
[16] = second compound 0.0316 µM, first compound 3.16 µM
[17] = second compound 0.0316 µM, first compound 10 µM
[18] = second compound 0.1 µM, first compound 0.0316 µM
[19] = second compound 0.1 µM, first compound 0.1 µM
[20] = second compound 0.1 µM, first compound 0.316 µM
[21] = second compound 0.1 µM, first compound 1 µM
[22] = second compound 0.1 µM, first compound 3.16 µM
[23] = second compound 0.1 µM, first compound 10 µM
[24] = second compound 0.316 µM, first compound 0.0316 µM
[25] = second compound 0.316 µM, first compound 0.1 µM
[26] = second compound 0.316 µM, first compound 0.316 µM
[27] = second compound 0.316 µM, first compound 1 µM
[28] = second compound 0.316 µM, first compound 3.16 µM
[29] = second compound 0.316 µM, first compound 10 µM
[30] = second compound 1 µM, first compound 0.0316 µM
[31] = second compound 1 µM, first compound 0.1 µM
[32] = second compound 1 µM, first compound 0.316 µM
[33] = second compound 1 µM, first compound 1 µM
[34] = second compound 1 µM, first compound 3.16 µM
[35] = second compound 1 µM, first compound 10 µM
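Also: spheroids exposed to compounds for 7 days before readout.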

`C=CC(=O)N1CCN(c2nc(=O)n(-c3c(C)ccnc3C(C)C)c3nc(-c4c(O)cccc4F)c(F)cc23)C(C)C1` (stereo unspecified) + CCN1CCN(Cc2ccc(Nc3ncc(F)c(-c4cc(F)c5nc(C)n(C(C)C)c5c4)n3)nc2)CC1 was tested, and the IC50 [1] was 7370 nM, the IC50 [2] was 7290 nM and the IC50 [3] was 7020 nM. It also gave an IC50 [4] of 4110 nM, an IC50 [5] of 143 nM and a viability, T/C [6] of 102%. The viability, T/C [7] was 108%, the viability, T/C [8] was 105% and the viability, T/C [9] was 119%. The viability, T/C [10] was 91%, the viability, T/C [11] was 35.2% and the viability, T/C [12] was 91.2%. It also gave a viability, T/C [13] of 107%, a viability, T/C [14] of 104% and a viability, T/C [15] of 107%. It also gave a viability, T/C [16] of 108%, a viability, T/C [17] of 29.7% and a viability, T/C [18] of 94.1%. The viability, T/C [19] was 109%, the viability, T/C [20] was 103% and the viability, T/C [21] was 124%. For the same compound, the viability, T/C [22] was 94.4%, the viability, T/C [23] was 30.1% and the viability, T/C [24] was 85.3%. It also gave a viability, T/C [25] of 93.3%, a viability, T/C [26] of 108% and a viability, T/C [27] of 106%. For the same compound, the viability, T/C [28] was 56.4%, the viability, T/C [29] was 28.1% and the viability, T/C [30] was 50.1%. The viability, T/C [31] was 50.2%, the viability, T/C [32] was 51.6% and the viability, T/C [33] was 42%. For the same compound, the viability, T/C [34] was 34.2% and the viability, T/C [35] was 17.6%.
For `CC(=O)c1c(C)c2cnc(Nc3ccc(N4CCNCC4)cn3)nc2n(C2CCCC2)c1=O`, the viability, T/C (compound 0.000949 µM) was 92.6% and 100%, the viability, T/C (compound 0.003 µM) was 125% and 99.8% and the viability, T/C (compound 0.00949 µM) was 91.4% and 106%. For the same compound, the viability, T/C (compound 0.03 µM) was 106% and 104%, the viability, T/C (compound 0.0949 µM) was 94.1% and 108% and the viability, T/C (compound 0.3 µM) was 99.7% and 95.6%. The IC50 (curve of compound) was greater than 300 nM.
With `COc1c(OCCCN2CCOCC2)ccc2c3n(c(=NC(=O)c4cnc(N)nc4)nc12)CCN3` + CC(C)NCC(C(=O)N1CCN(c2ncnc3c2C(C)CC3O)CC1)c1ccc(Cl)cc1 the IC50 [3] was 25.4 nM, the IC50 [4] was 31.6 nM and the IC50 [5] was 19 nM. The IC50 (curve of first compound, second compound 3.16 µM) was 13.9 nM, the IC50 (curve of first compound, second compound 10 µM) was 3.33 nM and the viability, T/C (second compound 0.1 µM, first compound 0.00316 µM) was 73.8%. It also gave a viability, T/C (second compound 0.1 µM, first compound 0.01 µM) of 61.1%, a viability, T/C [18] of 45.6% and a viability, T/C [19] of 36.1%. It also gave a viability, T/C [20] of 16.5%, a viability, T/C [21] of 3.99% and a viability, T/C (second compound 0.316 µM, first compound 0.00316 µM) of 91.6%. The viability, T/C (second compound 0.316 µM, first compound 0.01 µM) was 62.8%, the viability, T/C [24] was 55.1% and the viability, T/C [25] was 31.5%. For the same compound, the viability, T/C [26] was 15.6%, the viability, T/C [27] was 2.82% and the viability, T/C (second compound 1 µM, first compound 0.00316 µM) was 64.1%. The viability, T/C (second compound 1 µM, first compound 0.01 µM) was 57%, the viability, T/C [30] was 42% and the viability, T/C [31] was 36.3%. It also gave a viability, T/C [32] of 14.6%, a viability, T/C [33] of 2.64% and a viability, T/C (second compound 3.16 µM, first compound 0.00316 µM) of 50.2%. It also gave a viability, T/C (second compound 3.16 µM, first compound 0.01 µM) of 45.2%, a viability, T/C (second compound 3.16 µM, first compound 0.0316 µM) of 55.3% and a viability, T/C (second compound 3.16 µM, first compound 0.1 µM) of 39.3%. For the same compound, the viability, T/C (second compound 3.16 µM, first compound 0.316 µM) was 11.8%, the viability, T/C (second compound 3.16 µM, first compound 1 µM) was 5.41% and the viability, T/C (second compound 10 µM, first compound 0.00316 µM) was 52%. For the same compound, the viability, T/C (second compound 10 µM, first compound 0.01 µM) was 42.8%, the viability, T/C (second compound 10 µM, first compound 0.0316 µM) was 38.5% and the viability, T/C (second compound 10 µM, first compound 0.1 µM) was 33.6%. It also gave a viability, T/C (second compound 10 µM, first compound 0.316 µM) of 14.7% and a viability, T/C (second compound 10 µM, first compound 1 µM) of 5.1%.
For `CCCS(=O)(=O)Nc1ccc(F)c(C(=O)c2c[nH]c3ncc(-c4ccc(Cl)cc4)cc23)c1F`, the viability, T/C (compound 0.0316 µM) was 93.4% and 104%, the viability, T/C (compound 0.1 µM) was 103% and 99.8% and the viability, T/C (compound 0.316 µM) was 105% and 108%. For the same compound, the viability, T/C (compound 1 µM) was 92.9% and 98.8%, the viability, T/C (compound 3.16 µM) was 110% and 104% and the viability, T/C (compound 10 µM) was 75.7% and 78.5%. It also gave an IC50 (curve of compound) greater than 10000 nM.
Compound `CC(C)(C)c1cnc(CSc2cnc(NC(=O)C3CCNCC3)s2)o1` + CCN1CCN(Cc2ccc(Nc3ncc(F)c(-c4cc(F)c5nc(C)n(C(C)C)c5c4)n3)nc2)CC1 has an IC50 [1] of 154 nM, an IC50 [2] of 114 nM and an IC50 [3] of 67.8 nM. For the same compound, the IC50 [4] was 45.4 nM, the IC50 [5] was 13.1 nM and the viability, T/C (second compound 0.01 µM, first compound 0.00949 µM) was 103%. For the same compound, the viability, T/C (second compound 0.01 µM, first compound 0.03 µM) was 122%, the viability, T/C (second compound 0.01 µM, first compound 0.0949 µM) was 84.5% and the viability, T/C (second compound 0.01 µM, first compound 0.3 µM) was 2.06%. For the same compound, the viability, T/C (second compound 0.01 µM, first compound 0.949 µM) was 2.48%, the viability, T/C (second compound 0.01 µM, first compound 3 µM) was 2.1% and the viability, T/C (second compound 0.0316 µM, first compound 0.00949 µM) was 115%. The viability, T/C (second compound 0.0316 µM, first compound 0.03 µM) was 103%, the viability, T/C (second compound 0.0316 µM, first compound 0.0949 µM) was 59.2% and the viability, T/C (second compound 0.0316 µM, first compound 0.3 µM) was 5.51%. For the same compound, the viability, T/C (second compound 0.0316 µM, first compound 0.949 µM) was 1.33%, the viability, T/C (second compound 0.0316 µM, first compound 3 µM) was 0.97% and the viability, T/C (second compound 0.1 µM, first compound 0.00949 µM) was 93.8%. For the same compound, the viability, T/C (second compound 0.1 µM, first compound 0.03 µM) was 93.9%, the viability, T/C (second compound 0.1 µM, first compound 0.0949 µM) was 31.8% and the viability, T/C (second compound 0.1 µM, first compound 0.3 µM) was 1.38%. For the same compound, the viability, T/C (second compound 0.1 µM, first compound 0.949 µM) was 3.13%, the viability, T/C (second compound 0.1 µM, first compound 3 µM) was 1.36% and the viability, T/C (second compound 0.316 µM, first compound 0.00949 µM) was 83.5%. It also gave a viability, T/C (second compound 0.316 µM, first compound 0.03 µM) of 73.7%, a viability, T/C (second compound 0.316 µM, first compound 0.0949 µM) of 7.97% and a viability, T/C (second compound 0.316 µM, first compound 0.3 µM) of 1.31%. For the same compound, the viability, T/C (second compound 0.316 µM, first compound 0.949 µM) was 2.8%, the viability, T/C (second compound 0.316 µM, first compound 3 µM) was 3.38% and the viability, T/C (second compound 1 µM, first compound 0.00949 µM) was 55.7%. The viability, T/C (second compound 1 µM, first compound 0.03 µM) was 35.4%, the viability, T/C (second compound 1 µM, first compound 0.0949 µM) was 3.81% and the viability, T/C (second compound 1 µM, first compound 0.3 µM) was 1.87%. It also gave a viability, T/C (second compound 1 µM, first compound 0.949 µM) of 0.65% and a viability, T/C (second compound 1 µM, first compound 3 µM) of 1.32%.
`CC1(C)CCC(CN2CCN(c3ccc(C(=O)NS(=O)(=O)c4ccc(NCC5CCOCC5)c([N+](=O)[O-])c4)c(Oc4cnc5[nH]ccc5c4)c3)CC2)=C(c2ccc(Cl)cc2)C1` was tested, and the viability, T/C (compound 0.0316 µM) was 105% and 99.1%, the viability, T/C (compound 0.1 µM) was 103% and 102% and the viability, T/C (compound 0.316 µM) was 95.2% and 99%. The viability, T/C (compound 1 µM) was 94% and 108%, the viability, T/C (compound 3.16 µM) was 105% and 97.4% and the viability, T/C (compound 10 µM) was 27.4% and 15.8%. The IC50 (curve of compound) was 6990 nM and 6180 nM.
`Cn1ncc(Cl)c1-c1cc(C(=O)NC(CN)Cc2cccc(F)c2)sc1Cl` (stereo unspecified) + CCN1CCN(Cc2ccc(Nc3ncc(F)c(-c4cc(F)c5nc(C)n(C(C)C)c5c4)n3)nc2)CC1 gave an IC50 [1] of 1610 nM, an IC50 [2] of 1800 nM and an IC50 [3] of 1540 nM. For the same compound, the IC50 [4] was 1170 nM, the IC50 [5] was 402 nM and the viability, T/C [6] was 96%. For the same compound, the viability, T/C [7] was 81.6%, the viability, T/C [8] was 64.2% and the viability, T/C [9] was 60.7%. It also gave a viability, T/C [10] of 44.3%, a viability, T/C [11] of 0.26% and a viability, T/C [12] of 85.4%. For the same compound, the viability, T/C [13] was 78.5%, the viability, T/C [14] was 79.1% and the viability, T/C [15] was 56.9%. It also gave a viability, T/C [16] of 41.1%, a viability, T/C [17] of 0.2% and a viability, T/C [18] of 91.4%. For the same compound, the viability, T/C [19] was 82.2%, the viability, T/C [20] was 63.9% and the viability, T/C [21] was 54.2%. The viability, T/C [22] was 47.1%, the viability, T/C [23] was 0.18% and the viability, T/C [24] was 88.5%. The viability, T/C [25] was 92.3%, the viability, T/C [26] was 54.8% and the viability, T/C [27] was 60.6%. The viability, T/C [28] was 31.5%, the viability, T/C [29] was 12.4% and the viability, T/C [30] was 56.7%. For the same compound, the viability, T/C [31] was 54.3%, the viability, T/C [32] was 50.5% and the viability, T/C [33] was 44.7%. The viability, T/C [34] was 25.6% and the viability, T/C [35] was 0.54%.
